# Assay results published in ChEMBL document CHEMBL1201862, “PubChem BioAssay data set” (2004).
#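 Step 1: Grow cells in 96-well plates. Step 2: Expose to compound for 48 hours at 5 concentrations. Step 3: Interpolate endpoints linearly; if unreached, use highest concentration. The concentration for 50% growth inhibition is given as GI50.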 Activity calls are given as the source filed them. Rule as the data show it: active = GI50 up to about 1.1 µM and inactive = higher.
# Key:
# Assay in all cases: inhibition of tumour cell growth, NCI panel, 48 h
# 786-0 = tested on: 786-0
# A498 = tested on: A498
# A549 = tested on: A549
# ACHN = tested on: ACHN
# CAKI-1 = tested on: CAKI-1
# CCRF-CEM = tested on: CCRF-CEM
# COLO 205 = tested on: COLO 205
# DLD-1 = tested on: DLD-1
# DMS-114 = tested on: DMS-114
# DMS-273 = tested on: DMS-273
# EKVX = tested on: EKVX
# HCT-116 = tested on: HCT-116
# HCT-15 = tested on: HCT-15
# HL-60 = tested on: HL-60
# HOP-18 = tested on: HOP-18
# HOP-62 = tested on: HOP-62
# HOP-92 = tested on: HOP-92
# HT-29 = tested on: HT-29
# IGROV-1 = tested on: IGROV-1
# K562 = tested on: K562
# KM-20L2 = tested on: KM-20L2
# KM12 = tested on: KM12
# LOX IMVI = tested on: LOX IMVI
# LXFL 529 = tested on: LXFL 529
# M14 = tested on: M14
# M19-MEL = tested on: M19-MEL
# MOLT-4 = tested on: MOLT-4
# Malme-3M = tested on: Malme-3M
# NCI-H226 = tested on: NCI-H226
# NCI-H23 = tested on: NCI-H23
# NCI-H460 = tested on: NCI-H460
# NCI-H522 = tested on: NCI-H522
# OVCAR-3 = tested on: OVCAR-3
# OVCAR-4 = tested on: OVCAR-4
# OVCAR-5 = tested on: OVCAR-5
# OVCAR-8 = tested on: OVCAR-8
# RPMI-8226 = tested on: RPMI-8226
# RXF 393 = tested on: RXF 393
# RXF 631 = tested on: RXF 631
# SF-268 = tested on: SF-268
# SF-295 = tested on: SF-295
# SF-539 = tested on: SF-539
# SK-MEL-28 = tested on: SK-MEL-28
# SK-MEL-2 = tested on: SK-MEL-2
# SK-MEL-5 = tested on: SK-MEL-5
# SK-OV-3 = tested on: SK-OV-3
# SN12C = tested on: SN12C
# SNB-19 = tested on: SNB-19
# SNB-75 = tested on: SNB-75
# SNB-78 = tested on: SNB-78
# SR = tested on: SR
# SW-620 = tested on: SW-620
# TK-10 = tested on: TK-10
# U-251 = tested on: U-251
# UACC-257 = tested on: UACC-257
# UACC-62 = tested on: UACC-62
# UO-31 = tested on: UO-31
# XF498 = tested on: XF498
# HCC 2998 = tested on: HCC 2998
smiles,measurement,setting,value
CCOc1ccc(OP2(=O)NC(=O)C=C(C)N2)cc1 (centres undefined),GI50,786-0,92.9 µM (inactive)
same,GI50,A498,> 100 µM (inactive)
same,GI50,A549,> 100 µM (inactive)
same,GI50,ACHN,90.8 µM (inactive)
same,GI50,CAKI-1,> 100 µM (inactive)
same,GI50,CCRF-CEM,44.2 µM (inactive)
same,GI50,COLO 205,> 100 µM (inactive)
same,GI50,DLD-1,> 100 µM (inactive)
same,GI50,DMS-114,> 100 µM (inactive)
same,GI50,DMS-273,> 100 µM (inactive)
same,GI50,EKVX,> 100 µM (inactive)
same,GI50,HCT-116,> 100 µM (inactive)
same,GI50,HCT-15,> 100 µM
same,GI50,HL-60,37.8 µM (inactive)
same,GI50,HOP-18,> 100 µM (inactive)
same,GI50,HOP-62,> 100 µM (inactive)
same,GI50,HOP-92,> 100 µM (inactive)
same,GI50,HT-29,> 100 µM (inactive)
same,GI50,IGROV-1,> 100 µM (inactive)
same,GI50,K562,> 100 µM (inactive)
same,GI50,KM-20L2,> 100 µM (inactive)
same,GI50,KM12,> 100 µM (inactive)
same,GI50,LOX IMVI,> 100 µM (inactive)
same,GI50,LXFL 529,> 100 µM (inactive)
same,GI50,M14,> 100 µM (inactive)
same,GI50,M19-MEL,> 100 µM (inactive)
same,GI50,MOLT-4,> 100 µM (inactive)
same,GI50,Malme-3M,> 100 µM (inactive)
same,GI50,NCI-H226,> 100 µM (inactive)
same,GI50,NCI-H23,> 100 µM (inactive)
same,GI50,NCI-H460,> 100 µM (inactive)
same,GI50,NCI-H522,> 100 µM (inactive)
same,GI50,OVCAR-3,> 100 µM (inactive)
same,GI50,OVCAR-4,> 100 µM (inactive)
same,GI50,OVCAR-5,> 100 µM (inactive)
same,GI50,OVCAR-8,> 100 µM (inactive)
same,GI50,RPMI-8226,> 100 µM (inactive)
same,GI50,RXF 393,> 100 µM (inactive)
same,GI50,RXF 631,> 100 µM (inactive)
same,GI50,SF-268,> 100 µM (inactive)
same,GI50,SF-295,> 100 µM (inactive)
same,GI50,SF-539,> 100 µM (inactive)
same,GI50,SK-MEL-28,> 100 µM (inactive)
same,GI50,SK-MEL-2,> 100 µM (inactive)
same,GI50,SK-MEL-5,> 100 µM (inactive)
same,GI50,SK-OV-3,> 100 µM (inactive)
same,GI50,SN12C,> 100 µM (inactive)
same,GI50,SNB-19,> 100 µM (inactive)
same,GI50,SNB-75,> 100 µM (inactive)
same,GI50,SNB-78,> 100 µM (inactive)
same,GI50,SR,48.4 µM (inactive)
same,GI50,SW-620,> 100 µM (inactive)
same,GI50,TK-10,> 100 µM (inactive)
same,GI50,U-251,> 100 µM (inactive)
same,GI50,UACC-257,> 100 µM (inactive)
same,GI50,UACC-62,> 100 µM (inactive)
same,GI50,UO-31,> 100 µM (inactive)
same,GI50,XF498,> 100 µM (inactive)
C[C@@]1(CBr)C[C@@](C)(/C=C/Cl)[C@@H](Cl)C[C@H]1Cl,GI50,786-0,14 µM (inactive)
same,GI50,A498,16.9 µM (inactive)
same,GI50,A549,12.3 µM (inactive)
same,GI50,ACHN,12.7 µM (inactive)
same,GI50,CAKI-1,17.3 µM (inactive)
same,GI50,CCRF-CEM,2.92 µM (inactive)
same,GI50,COLO 205,13.5 µM (inactive)
same,GI50,DLD-1,13.6 µM (inactive)
same,GI50,DMS-114,12.7 µM (inactive)
same,GI50,DMS-273,10.8 µM (inactive)
same,GI50,EKVX,18.1 µM (inactive)
same,GI50,HCC 2998,16.1 µM (inactive)
same,GI50,HCT-116,7.03 µM (inactive)
same,GI50,HL-60,3.06 µM (inactive)
same,GI50,HOP-18,13.5 µM (inactive)
same,GI50,HOP-62,14.2 µM (inactive)
same,GI50,HOP-92,13.6 µM (inactive)
same,GI50,HT-29,9.04 µM (inactive)
same,GI50,IGROV-1,14.8 µM (inactive)
same,GI50,K562,4.74 µM (inactive)
same,GI50,KM-20L2,11.6 µM (inactive)
same,GI50,KM12,7.83 µM (inactive)
same,GI50,LOX IMVI,11.5 µM (inactive)
same,GI50,LXFL 529,10 µM (inactive)
same,GI50,M14,15.5 µM (inactive)
same,GI50,M19-MEL,13.1 µM (inactive)
same,GI50,MOLT-4,4.03 µM (inactive)
same,GI50,Malme-3M,16.4 µM (inactive)
same,GI50,NCI-H226,12.8 µM (inactive)
same,GI50,NCI-H23,13.3 µM (inactive)
same,GI50,NCI-H522,3.31 µM (inactive)
same,GI50,OVCAR-3,10.8 µM (inactive)
same,GI50,OVCAR-4,11.6 µM (inactive)
same,GI50,OVCAR-5,13.5 µM (inactive)
same,GI50,OVCAR-8,13.9 µM (inactive)
same,GI50,RXF 393,13.8 µM (inactive)
same,GI50,RXF 631,11.9 µM (inactive)
same,GI50,SF-268,15.9 µM (inactive)
same,GI50,SF-295,13.8 µM (inactive)
same,GI50,SF-539,14.6 µM (inactive)
same,GI50,SK-MEL-28,17.5 µM (inactive)
same,GI50,SK-MEL-2,2.74 µM (inactive)
same,GI50,SK-MEL-5,13.3 µM (inactive)
same,GI50,SK-OV-3,16 µM (inactive)
same,GI50,SN12C,11.7 µM (inactive)
same,GI50,SNB-19,13.5 µM (inactive)
same,GI50,SNB-75,16.1 µM (inactive)
same,GI50,SNB-78,2.94 µM (inactive)
same,GI50,SR,1.9 µM (inactive)
same,GI50,SW-620,13.9 µM (inactive)
same,GI50,TK-10,14.7 µM (inactive)
same,GI50,U-251,14.2 µM (inactive)
same,GI50,UACC-257,11.4 µM (inactive)
same,GI50,UACC-62,15.5 µM (inactive)
same,GI50,UO-31,15.6 µM (inactive)
same,GI50,XF498,11.7 µM (inactive)
